pKi: −log10 of the molar value.
Key:
[1] = biological target: T1, α1b (hamster) adrenoceptor (Mesocricetus auratus, UniProt P18841); experiment: Radioligand binding cloned α1b adrenoceptor expressed in LTK cells, [3H]-prazosin; conditions: LTK cell membranes, [3H]prazosin 0.2 nM
T1 construct: expressed in transfected cells; cDNA from TULCO
T1 sequence (P18841 1-515): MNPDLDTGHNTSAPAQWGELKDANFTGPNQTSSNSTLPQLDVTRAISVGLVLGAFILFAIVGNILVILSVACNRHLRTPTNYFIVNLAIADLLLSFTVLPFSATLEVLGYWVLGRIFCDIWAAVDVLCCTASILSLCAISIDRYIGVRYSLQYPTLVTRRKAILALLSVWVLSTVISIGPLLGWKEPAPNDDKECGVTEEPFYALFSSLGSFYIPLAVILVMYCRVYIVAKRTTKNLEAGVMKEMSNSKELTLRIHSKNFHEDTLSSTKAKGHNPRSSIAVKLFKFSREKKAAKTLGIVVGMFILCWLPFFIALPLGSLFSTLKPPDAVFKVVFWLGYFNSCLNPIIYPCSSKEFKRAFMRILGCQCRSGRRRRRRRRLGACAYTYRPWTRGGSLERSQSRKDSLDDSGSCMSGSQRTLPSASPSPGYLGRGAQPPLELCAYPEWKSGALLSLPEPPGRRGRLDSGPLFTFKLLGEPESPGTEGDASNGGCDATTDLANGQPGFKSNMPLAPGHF
Method: (§1) Representative compounds of the invention were evaluated for α-adrenoceptor binding affinity in vitro using [^3 H]-prazosin as the radioligand and two cloned α1 adrenoceptors expressed in LTK cells: α1b (hamster), and α1d (rat). Additionally, binding affinity against the pharmacologically defined α1A adrenoceptor (rat submaxillary gland) was measured.
(§2) The cDNA clones encoding the α-1 adrenoceptors (α1b and α1d) were obtained from TULCO (Triangle Universities Licensing Consortium, Research Triangle Park, N.C.) and inserted into the eukaryotic expression vector SnaB30. In this vector, expression of the adrenoceptor gene is under the transcriptional control of an SV40 early promoter. Positive drug selection is provided by a neomycin-resistance gene. Mouse fibroblast cells (LTK) were transfected with the α1 expression plasmids and grown in Dulbecco's modified Eagle's medium (DMEM) containing 10% fetal calf serum and […] G418. Stable G418-resistant parental lines were generated and successful expression of adrenoceptor protein was monitored using radioligand binding techniques. Stable single cell clones derived from the parental lines were screened in adrenoceptor binding assays to identify clones having high adrenoceptor density. Roller bottle cultures of the cloned lines were used to provide cell membranes for subsequent adrenoceptor binding characterization studies. A cell line containing the SnaB30 vector expressing the human erythropoietin gene served as a negative control.
For adrenoceptor binding assays, large scale membrane preparations were utilized in which 6 million cells were seeded into small (450 cm^2) Corning tissue culture roller bottles. 200 mL of DMEM containing 10% fetal calf serum and […] G418 were added to each roller bottle. A 95% air/5% CO2 gas mixture (sterile) was injected into each roller bottle prior to sealing. The bottles were incubated at 37° C. on a roller rack for 5 days. Cells were re-fed with fresh medium after 3 days in culture.
On the fifth day of culture, growth medium was removed from cells grown in the roller bottles, and the cells were washed twice with PBS (Sigma, 120 mM NaCl, 2.7 mM KCl, 10 mM Na2 HPO4 --NaH2 PO4, pH=7.4). Cells were detached from the roller bottles by incubating for 15 minutes at 37° C. in a Tris-EDTA solution (10 mM Tris, 100 mM NaCl, 1 mM EDTA, pH=7.4). The cell suspension from each roller bottle was decanted into preweighed centrifuge tubes and kept on ice. An aliquot of each cell suspension was generally taken for cell counting. Cells were centrifuged at 3000×G for 5 min at 2-4° C., washed with PBS and recentrifuged. The supernatant was decanted and the pellet was weighed to determine the wet weight of cells. Cells were washed a final time in 40 vol 5 mM Tris-HCl, 5 mM EDTA, pH=7.7, centrifuged at 40,000×G for 10 minutes, homogenized in 10 mL of 50 mM Tris-HCl, 5 mM EDTA (pH=7.4), and diluted to 40 mL/tube. Homogenates were centrifuged at 40,000×G for 10 minutes. The supernatant was decanted and the pellets were rehomogenized in 50 mM Tris-HCl (pH=7.4) and centrifuged as before.
(§3) Briefly, plastic Bioblocks™ (DBM Scientific, Valencia, Calif.) were incubated at 25° C. for 50 minutes with […] of membrane homogenate (diluted with an additional 96 volumes (for cloned adrenoceptors, 12 volumes for submaxillary gland)) in 50 mM Tris-HCl buffer (pH=7.7 at the time of assay), […] of [^3 H]prazosin (0.2 nM final concentration, 75-85 Ci/mmole, DuPont-NEN Corp., Boston, Mass.), and […] of either water (for total binding) or […] phentolamine (final concentration, for non-specific binding). Following equilibration, bound radioligand was separated from free on GF/B filters (presoaked in 0.5% polyethyleneamine) using either a Brandel or Packard cell harvester. Radioactivity was determined by standard liquid scintillation techniques.

α1d (rat) adrenoceptor = biological target: T2, α1d (rat) adrenoceptor (Rattus norvegicus, UniProt P23944); experiment: Radioligand binding cloned α1d adrenoceptor expressed in LTK cells, [3H]-prazosin; conditions: LTK cell membranes, [3H]prazosin 0.2 nM
T2 construct: expressed in transfected cells; cDNA from TULCO
T2 sequence (P23944 1-561): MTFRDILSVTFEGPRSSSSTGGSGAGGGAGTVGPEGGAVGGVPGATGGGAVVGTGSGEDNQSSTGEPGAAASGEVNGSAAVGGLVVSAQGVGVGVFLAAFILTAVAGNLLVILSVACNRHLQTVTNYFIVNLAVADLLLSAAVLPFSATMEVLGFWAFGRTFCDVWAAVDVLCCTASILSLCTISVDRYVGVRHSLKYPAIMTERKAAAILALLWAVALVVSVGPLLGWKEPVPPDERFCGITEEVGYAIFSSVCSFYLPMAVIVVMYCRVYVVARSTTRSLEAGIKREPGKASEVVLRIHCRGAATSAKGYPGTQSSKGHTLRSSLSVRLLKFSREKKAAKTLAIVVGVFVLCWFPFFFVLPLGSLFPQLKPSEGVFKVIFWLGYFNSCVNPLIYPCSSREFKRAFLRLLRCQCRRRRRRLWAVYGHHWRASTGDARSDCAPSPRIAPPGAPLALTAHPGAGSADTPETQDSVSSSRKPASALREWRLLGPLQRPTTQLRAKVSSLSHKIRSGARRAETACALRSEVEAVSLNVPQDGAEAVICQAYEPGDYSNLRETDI
Method: as §1
as §2, with “A cell line containing the SnaB30 vector expressing the human erythropoietin gene served as a negative control.” left out

[2] = test system: EPI induced increase in canine IUP; experiment: In vivo intraurethral pressure (IUP) in canines, inhibition of EPI induced increase; design: species or system Beagle dogs; conditions: in vivo pseudo pA2 by Schild analysis; antagonist i.v.; epinephrine; propranolol-treated dogs; * (tamsulosin): add 0.4 if slope adjusted to 1
Method: The intraurethral pressure (IUP) model in aged canines is an accepted model of measuring the effect of prostate smooth muscle contraction on urethral tone. Canines also have an enclosed prostate covering the urethral shaft and thus provide an anatomical correlate with humans.
Beagle dogs (Marshall Farms) greater that 2 years of age and weighing between 12 and 15 kg were pre-anesthetized with thiopental sodium 15 mg/kg i.v. (Pentothal™, Abbott Laboratories, Abbott Park, Ill.) then placed under general anesthesia (isoflurane). A 7F Swan-Ganz balloon catheter (Multiflex-list no. 41224-01, Abbott) was lubricated with a water soluble jelly, inserted into the urethral orifice and advanced approximately 40 cm in male dogs (considerably less in females) until the balloon tip was placed well inside the bladder. The balloon was then inflated with 1 mL of room air, and the catheter was slowly withdrawn just past the first resistance that is felt at the bladder neck. Preliminary experiments in which dogs were sacrificed after such placement confirmed that this technique results in consistent positioning of the balloon within the prostatic urethra in males or the corresponding location in females. The balloon port of the catheter was connected to a Gould Statham P23Dd pressure transducer interfaced to a computerized data acquisition system (Modular Instruments, Inc., Malvern, Pa.) for the measurement of intraurethral pressure (IUP).
Dogs were then treated with propranolol to block the β-adrenoceptor agonist effects of test agonists. Dose-response curves of the intraurethral pressor effect of epinephrine (EPI) were obtained before and after each of up to 3 increasing doses of a test antagonist (i.v.). Fifteen minutes were allowed after each antagonist dose for equilibration before the next agonist dose-response was initiated. The increase in IUP caused by a given agonist dose was allowed to return to baseline before the next dose was given. The estimated antagonist dissociation constant (in vivo pseudo pA2) was determined by Schild analysis (Brune, et al., Drug Development Research, 34:267-275 (1995).

[3] = biological target: T3, α1A adrenoceptor (rat submaxillary gland) (Rattus norvegicus, UniProt P43140); experiment: Radioligand binding α1A (rat submaxillary gland), [3H]-prazosin
T3 construct: from tissue; host or cells: rat submaxillary gland membranes
T3 sequence (P43140 1-466): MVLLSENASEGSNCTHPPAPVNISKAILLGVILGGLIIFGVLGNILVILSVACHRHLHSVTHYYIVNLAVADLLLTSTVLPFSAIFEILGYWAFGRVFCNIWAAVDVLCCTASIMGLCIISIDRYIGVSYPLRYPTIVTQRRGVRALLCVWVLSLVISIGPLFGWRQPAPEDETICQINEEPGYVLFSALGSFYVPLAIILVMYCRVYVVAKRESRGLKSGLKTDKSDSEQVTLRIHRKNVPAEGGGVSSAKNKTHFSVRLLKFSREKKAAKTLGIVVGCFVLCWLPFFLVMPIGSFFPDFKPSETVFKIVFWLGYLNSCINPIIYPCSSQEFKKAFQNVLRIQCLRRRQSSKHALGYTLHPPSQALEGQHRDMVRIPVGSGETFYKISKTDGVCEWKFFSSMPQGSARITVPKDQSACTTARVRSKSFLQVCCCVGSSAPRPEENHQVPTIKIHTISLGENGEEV
Method: as §1
On the fifth day of culture, growth medium was removed from cells grown in the roller bottles, and the cells were washed twice with PBS (Sigma, 120 mM NaCl, 2.7 mM KCl, 10 mM Na2 HPO4 --NaH2 PO4, pH=7.4). Cells were detached from the roller bottles by incubating for 15 minutes at 37° C. in a Tris-EDTA solution (10 mM Tris, 100 mM NaCl, 1 mM EDTA, pH=7.4). […]
as §3, with “Following equilibration, bound radioligand was separated from free on GF/B filters (presoaked in 0.5% polyethyleneamine) using either a Brandel or Packard cell harvester.” left out

Row | Structure (SMILES) | pKi [1] | pKi (α1d (rat) adrenoceptor) | IUP (pA2) [2] | pKi [3]
1 | COc1ccccc1N1CCN(CCn2c(=O)c3c(-c4ccccc4)csc3n(C)c2=O)CC1 [Example 3, 3-[4-(2-methoxyphenyl)piperazinylethyl]-1-methyl-5-phenylthieno[2,3-d]pyrimidine-2,4-dione] | 8.35 |  |  | 
2 | COc1cc2nc(N3CCN(C(=O)C4CCCO4)CC3)nc(N)c2cc1OC (stereo not drawn) [terazosin, reference compound] |  | 9.00 | 6.97 | 
3 | CCOc1ccccc1OCCN[C@H](C)Cc1ccc(OC)c(S(N)(=O)=O)c1 [tamsulosin, reference compound] | 9.69 |  | 8.91 | 10.55

The next lines start with results.

Row | pKi [1] | pKi (α1d (rat) adrenoceptor) | Structure (SMILES) | IUP (pA2) [2] | pKi [3]
4 | 8.61 |  | COc1ccccc1N1CCN(CCn2c(=O)[nH]c3sc(C)c(-c4ccccc4)c3c2=O)CC1 [Example 2, 3-[4-(2-methoxyphenyl)piperazinylethyl]-6-methyl-5-phenylthieno[2,3-d]pyrimidine-2,4-dione] |  | 
5 | 8.47 |  | COc1ccccc1N1CCN(CCn2c(=O)[nH]c3scc(-c4ccccc4)c3c2=O)CC1 [Example 1, 3-[4-(2-methoxyphenyl)piperazinylethyl]-5-phenylthieno[2,3-d]pyrimidine-2,4-dione] | 7.95 | 
6 | 8.73 |  | COc1ccccc1N1CCN(CCn2c(=O)[nH]c3sc(-c4ccccc4)cc3c2=O)CC1 [Example 5, 3-[4-(2-methoxyphenyl)piperazinylethyl]-6-phenylthieno[2,3-d]pyrimidine-2,4-dione] | 8.47 | 
7 | 8.56 |  | COc1ccccc1N1CCN(CCn2c(=O)[nH]c3scc(-c4cccc(C)c4)c3c2=O)CC1 [Example 4, 3-[4-(2-methoxyphenyl)piperazinylethyl]-5-(3-methylphenyl)thieno[2,3-d]pyrimidine-2,4-dione] |  | 

From patent US6153614A, “Piperazinyl pyrimidine dione compounds selective for adrenoceptors” (Abbott Laboratories, priority 1998, dated 2000)
